Laboratory results reported in patent US12383511B2, “Osteogenic agents and uses thereof” (GoldPorp Pharma Limited, priority 2022, dated 2025).

Columns and labels:
[1] = biological target: Estrogen receptor beta (Homo sapiens, UniProt Q92731); experiment: biochemical
[2] = test system: MC3T3-E1 osteoblasts; experiment: Cell viability / cell number NBB assay; type: cell-based
Description: MC3T3-E1 cells were seeded at 7×10^3 cells/well in 96-well plates for 2 days. […] After treatment, cells were fixed with 3% formalin and stained with NBB solution (0.05% NBB with 0.1 M sodium acetate and 9% acetic acid) at room temperature. Twenty four hours later, staining solution was removed and distilled water was added to remove free dye. Then, 100 ul of 50 mM […] was added to dissolve bound dye and recorded absorbance at 590 nm.

[3] = test system: MC3T3-E1 osteoblast; experiment: mRNA expression of osteogenesis-related molecules by real-time PCR; type: cell-based; settings: for AFT6 mRNA expression / ALP mRNA expression / ATF3 mRNA expression / Axin2 mRNA expression / BMP2 mRNA expression / BMP7 mRNA expression / BSP mRNA expression / COL1A1 mRNA expression / Fzd1 mRNA expression / Fzd2 mRNA expression / Fzd5 mRNA expression / LRP5 mRNA expression / OCN mRNA expression / OPN mRNA expression / OSN mRNA expression / OSX mRNA expression / Runx2 mRNA expression / VDR mRNA expression / Wnt3A mRNA expression / Wnt5A mRNA expression / Wnt7B mRNA expression / Wnt11 mRNA expression: BMP2 30 ng/ml, ASC 400 μM + β-GP 5 mM, F1 5 μM, F4 5 μM, relative to DMSO control, normalized to GAPDH
Description: MC3T3-E1 cells were seeded in 6-well plates at 1×10^5 cells per well for 2 days. […] Total RNA was isolated at Day 2 and Day 4 with Trizol® reagent, 1 ug of total RNA was subjected to reverse transcription/cDNA synthesis using Superscript III first-strand synthesis system (Life Technologies).
Equal amount of cDNA generated from reverse transcription reactions were subjected to real-time PCR with SYBR® Green PCR Master Mix and primers for osteoblast differentiation markers. Primers used included: […]
Osteoblast differentiation markers genes expression were analyzed by ABI prism 7900HT Sequence Detection System and the relative level of transcript expression was quantified by ΔΔCt method.

[4] = test system: p38; experiment: Western blot of phosphorylated p38 and total p38; type: cell-based; settings: 5 μM, 15 min and 30 min, MC3T3-E1 osteoblasts
Description: MC3T3-E1 were lysed with 20 mM Tris pH8.0, 137 mM NaCl, 2 mM EDTA, 1% Triton X-100 and 10% Glycerol with protease inhibitor cocktail (Roche, complete). Protein concentration was determined by Bradford Protein Assay (Bio-Rad) and equal amount of proteins (30 μg) was resolved by SDS-PAGE and transferred onto PVDF membrane. The membrane was blocked with 3% BSA in Tris-buffered saline containing 0.1% Tween 20 and incubated with primary antibody (1:1000) overnight at 4° C. then incubated with HRP-linked secondary antibody for 1 h. Chemiluminescence signals were detected using enhanced chemiluminescence reagents (GE Healthcare) on X-Ray films (Fujifilm).
The levels of phosphorylated p38 and total p38 were determined by immunoblotting experiments.

[5] = test system: MCF7 cells; experiment: BrdU incorporation proliferation assay; type: cell-based
From the text: The effect of F compounds on estrogen dependent cancer cells was investigated (FIG. 8). […] The fold increase of MCF7 proliferation was similar to that induced by estradiol treatment.

[6] = test system: estrogen responsive gene elements (ERE); experiment: pERE-Luc reporter gene assay in MC3T3-E1; type: cell-based; settings: 0.5-10 μM, MC3T3-E1
Description: MC3T3-E1 were seeded at 9.0×10^4 per well in 24-well plates. Twenty-four hours after cell seeding, cells were transiently transfected with 500 ng pERE-Luc (contains three repeats of estrogen-response element) by lipofectamine 2000 (Life Technologies) according to manufacturers' instruction (lipofectamine:DNA=3:1).

[7] = test system: MC3T3-E1 osteoblast cells; experiment: Osteoblast mineralization assay (Alizarin Red staining); type: cell-based; settings: […] or 5 μM in osteoblast mineralization medium, day 14, compared with control
Description: MC3T3-E1 cells were seeded at 1×10^5 cells per well in 24-well plates. […] […] Cells were washed twice with PBS and fixed with 10% formalin for 1 hour. Fixed cell was washed twice with distilled water and stained with 2% Alizarin Red S solution (pH 4.1) in the dark for 1 hour. Stain solution was removed and washed 4 times with distilled water.

[8] = test system: MC3T3-E1 osteoblasts; experiment: Alkaline phosphatase (ALP) activity assay in MC3T3-E1 osteoblasts; type: cell-based
Description: MC3T3-E1 (passage 4-10) was maintained in Minimal Essential Media (MEM) supplemented with 10% FBS, 1 mM Sodium Pyruvate and 1% 100 ug/ml penicillin-streptomycin (100 U/ml). All reagents are from GIBCO Life Technologies.
MC3T3-E1 cells were seeded at 1×10^5 cells per well in 24-well plate. […] After treatment, cells were washed twice with PBS and lysed with buffer contains 50 mM Tris pH7.4 and 0.1% Triton X-100. After 3 freeze-thaw cycles, 40 ul of cell lysate was mixed with 50 ul of 2× Assay buffer (2-Amino-2methyl-1-propanol, pH 10.4 with 4 mM MgCl2) and 10 ul of 0.1M 4-Nitrophenyl phosphate. Incubated in 37° C. and recorded at OD410.

[9] = test system: MDA-MB-231 cells; experiment: BrdU incorporation proliferation assay; type: cell-based; settings: 5 μM

Estrogen receptor beta, sequence (Q92731 whole entry, species assumed): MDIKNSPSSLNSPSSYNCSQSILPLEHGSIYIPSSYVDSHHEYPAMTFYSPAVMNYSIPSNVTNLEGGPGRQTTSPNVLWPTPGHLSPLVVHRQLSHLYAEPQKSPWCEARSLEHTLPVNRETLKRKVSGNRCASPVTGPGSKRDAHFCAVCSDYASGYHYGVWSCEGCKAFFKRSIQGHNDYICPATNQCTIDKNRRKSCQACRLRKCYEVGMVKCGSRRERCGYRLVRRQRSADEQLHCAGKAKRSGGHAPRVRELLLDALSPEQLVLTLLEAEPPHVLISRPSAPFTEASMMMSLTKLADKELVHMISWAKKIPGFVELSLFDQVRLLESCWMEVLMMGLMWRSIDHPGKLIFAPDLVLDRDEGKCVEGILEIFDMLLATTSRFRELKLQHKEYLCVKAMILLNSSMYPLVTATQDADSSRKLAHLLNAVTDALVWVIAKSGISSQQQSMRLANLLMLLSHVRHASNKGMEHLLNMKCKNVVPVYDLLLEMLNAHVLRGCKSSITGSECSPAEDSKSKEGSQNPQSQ

For `C=Cc1cc(O)cc2c1-c1ccc(O)c(C)c1CC2` [F4, effusol], the IC50 [1] was 5.6 nM, the “cell number (NBB assay)” value ([2]; 0.625 to 10 μM) was “slightly increased the cell number” and the “cell viability (NBB assay)” value ([2]; higher concentrations (25-100 μM)) was “significant loss of cell viability”. The “mRNA of Wnt pathway members Wnt3A and frizzled 1” value [3] was “increases”, the “AFT6 mRNA expression” value ([3]; D 2) was 1.5 fold and the “ALP mRNA expression” value ([3]; D 2) was 2.1 fold. The “ATF3 mRNA expression” value ([3]; D 2) was 0.7 fold, the “Axin2 mRNA expression” value ([3]; D 2) was 1.1 fold and the “BMP2 mRNA expression” value ([3]; D 2) was 1.0 fold. For the same compound, the “BMP7 mRNA expression” value ([3]; D 2) was 1.0 fold, the “BSP mRNA expression” value ([3]; D 2) was 1.6 fold and the “COL1A1 mRNA expression” value ([3]; D 2) was 1.0 fold. For the same compound, the “Fzd1 mRNA expression” value ([3]; D 2) was 3.3 fold, the “Fzd2 mRNA expression” value ([3]; D 2) was 0.8 fold and the “Fzd5 mRNA expression” value ([3]; D 2) was 0.7 fold. For the same compound, the “LRP5 mRNA expression” value ([3]; D 2) was 0.9 fold, the “OCN mRNA expression” value ([3]; D 2) was 17 fold and the “OPN mRNA expression” value ([3]; D 2) was 1.5 fold. The “OSN mRNA expression” value ([3]; D 2) was 0.9 fold, the “OSX mRNA expression” value ([3]; D 2) was 0.6 fold and the “Runx2 mRNA expression” value ([3]; D 2) was 1.3 fold. For the same compound, the “VDR mRNA expression” value ([3]; D 2) was 2.1 fold, the “Wnt3A mRNA expression” value ([3]; D 2) was 0.9 fold and the “Wnt5A mRNA expression” value ([3]; D 2) was 1.0 fold. The “Wnt7B mRNA expression” value ([3]; D 2) was 0.6 fold, the “Wnt11 mRNA expression” value ([3]; D 2) was 0.8 fold and the “AFT6 mRNA expression” value ([3]; D 4) was 2.1 fold. The “ALP mRNA expression” value ([3]; D 4) was 4.6 fold, the “ATF3 mRNA expression” value ([3]; D 4) was 0.9 fold and the “Axin2 mRNA expression” value ([3]; D 4) was 1.1 fold. The “BMP2 mRNA expression” value ([3]; D 4) was 0.9 fold, the “BMP7 mRNA expression” value ([3]; D 4) was 1.3 fold and the “BSP mRNA expression” value ([3]; D 4) was 1.2 fold. The “COL1A1 mRNA expression” value ([3]; D 4) was 1.2 fold, the “Fzd1 mRNA expression” value ([3]; D 4) was 5.8 fold and the “Fzd2 mRNA expression” value ([3]; D 4) was 0.8 fold. For the same compound, the “Fzd5 mRNA expression” value ([3]; D 4) was 0.8 fold, the “LRP5 mRNA expression” value ([3]; D 4) was 1.0 fold and the “OCN mRNA expression” value ([3]; D 4) was 9 fold. For the same compound, the “OPN mRNA expression” value ([3]; D 4) was 2.7 fold, the “OSN mRNA expression” value ([3]; D 4) was 2 fold and the “OSX mRNA expression” value ([3]; D 4) was 0.6 fold. For the same compound, the “Runx2 mRNA expression” value ([3]; D 4) was 1.7 fold, the “VDR mRNA expression” value ([3]; D 4) was 1.6 fold and the “Wnt3A mRNA expression” value ([3]; D 4) was 1.9 fold. The “Wnt5A mRNA expression” value ([3]; D 4) was 0.8 fold, the “Wnt7B mRNA expression” value ([3]; D 4) was 0.1 fold and the “Wnt11 mRNA expression” value ([3]; D 4) was 0.4 fold. For the same compound, the “levels of osteocalcin (OCN) and osteoportin (OPN) mRNA” value ([3]; treatment of cells with F1 or F4) was “markedly increased”, the “levels of phosphorylated p38” value [4] was “increased levels of phosphorylated p38” and the “MCF7 cell proliferation induced by estradiol” value ([5]; 5 μM) was “significantly suppress”. For the same compound, the MCF7 cell proliferation ([5]; dose of 5 μM or higher) was “inhibited the proliferation”, the MCF7 cell proliferation ([5]; low dose of 0.3 μM) was “induced MCF7 cell proliferation” and the “transcriptional activity driven by estrogen responsive gene elements (ERE)” value [6] was “stimulated the transcriptional activity driven by estrogen responsive gene elements (ERE) in a dose-dependent manner”. The “Alizarin Red staining (calcium deposition) in cell layers” value [7] was “significantly enhanced”, the “cellular alkaline phosphatase (ALP) enzyme activities” value ([8]; 0.5, 1.5, 5 μM) was “increased the cellular alkaline phosphatase (ALP) enzyme activities in a concentration-dependent manner” and the “concentration at which increases in ALP activities were already evident” value ([8]; at 24 and 48 h after treatment) was 0.5 µM. The “concentration of maximum increase in ALP activities” value ([8]; at 24 and 48 h after treatment) was 5 µM and the “cell proliferation induced by 17beta-estradiol in MDA-MB-231 cells (ER negative)” value [9] was “had no effect”.
